The values that follow are results of earlier work, collected in paper PMC6912862 (ACS Medicinal Chemistry Letters, 2019).

Where “and” joins values, the source holds several entries; their conditions need not be identical. Equal entries are not always repeated.

One data set deals with HeLa cells. As to conditions: cisplatin comparison.
The next data set deals with HeLa xenograft. The note with it: same conditions (2.0 mg/kg), p < 0.05.

Turning to `N.N.[Cl][Pt][Cl]` [cisplatin, cis-[PtCl2(NH3)2]], in the data set on HeLa cells, the “Cell accumulation of Pt” value was 4.11 ± 0.59 (nmol of Pt)/10^6 cells. Further, in the data set on HeLa xenograft, the “Inhibition of tumor growth (IR), cisplatin-treated groups” value was 35.2% and 35.2 ± 5.8%.
